Assay results taken from patent US12398117B2, “Heteroarylamidopyridinol derivative and pharmaceutical composition comprising same as active ingredient for prevention or treatment of autoimmune disease” (INNOVO THERAPEUTICS INC., priority 2019, dated 2025).

What was measured:
[1] = system: adhesion of intestinal epithelial cells (HT-29) and monocytic cells (U937) induced by TNF-α; experiment: Inhibition of TNF-α-induced adhesion of monocytes and intestinal epithelial cells; format: cell-based, human; conditions: for inhibition at 1 µM: read-out: Inhibitory activity (%); for IC50: inhibition of adhesion by TNF-α
Procedure: HT-29 human colon cancer-derived epithelial cells and U937 human-derived monocytes were cultured in RPMI 1640 medium containing 10% FBS and 1% penicillin/streptomycin (PS) in a 37° C., 5% CO2 incubator. When the cells grew more than 80% of the bottom area of the culture flask, they were passaged at a ratio of 1:3 and used in this experiment. HT-29 cells were cultured in a 24-well plate at the density of 2×10^5 cells/cm^2, and the test drug was pretreated in a medium containing 1% FBS and 1% PS for 1 hour. Thereafter, 10 μg/mL of BCECF-AM was treated thereto and reacted at 37° C. for 30 minutes. U937 cells loaded with BCECF and TNF-α (10 ng/mL) were reacted with HT-29 cells previously treated with the test drug at 37° C. for 3 hours. Upon completion of the reaction, the medium was removed, and the culture flask was washed twice with PBS to remove non-adherent U937 cells. In the next step, the cells were lysed by treating with 0.1% Triton X-100 (0.1 M Tris) and reacted at room temperature for 30 minutes. Then, fluorescence was measured and quantified using a fluostar optima microplate reader (BMG Labtechnologies, Germany) (Carvalho et al., 1996; Thapa et al., 2008).

[2] = system: TNBS-induced inflammatory bowel disease rat model; experiment: Oral efficacy in TNBS-induced inflammatory bowel disease rat model; format: in vivo, Sprague Dawley rats
Procedure: (§1) Sprague Dawley rats aged 7-8 weeks were purchased from OrientBio (Korea), stabilized with general solid feed for 3 days, and then used in this experiment. Feed and water were freely supplied during the experiment period, and the temperature of the breeding room was maintained at 25±1° C. and the relative humidity at 50±10%. Lighting management was controlled in a 12-hour light-dark cycle by an automatic lighting controller.
After anesthetizing rats that had been fasted for 24 hours with diethyl ether, 0.8 mL of 5% TNBS diluted with 50v/v % ethanol was slowly injected into the lumen of the colon using a 1 mL syringe connected to a polyethylene catheter, and then, the rats were left standing for 60 seconds in an inverted position in order to prevent 5% TNBS from leaking into the anus. For the control group, only vehicle [50v/v % ethanol] was injected in the same manner as in the other groups (Thapa et al., 2008).
In order to investigate the effect of the drug, the drug was administered at a constant time every day for 5 days from the day after the TNBS treatment.
Changes in body weight of each rat were observed from the fasting stage to the TNBS administration and drug administration process using a digital mass meter.
The colon of the rat was extracted, and the tissue 5-6 cm away from the anus was cut into a length of 1 cm, and the weight of the tissue was measured.
The weighed rat tissues were fixed with 4% paraformaldehyde solution, and then transferred to 30% sucrose solution. When the tissues subside, they were taken out and cut into […] thick using a cryomicrotome (Microm HM 450, Thermo Fisher Scientific, Germany) and stored in a cryopreservation solution. After washing the tissue section with KPBS, the tissue section was attached to a slide glass, dried, and then stained with hematoxylin & Eosin and observed under a microscope.

[3] = system: adhesion of intestinal epithelial cells (HT-29) and monocytic cells (U937) induced by IL-6; experiment: Inhibition of IL-6-induced adhesion of monocytes and intestinal epithelial cells; format: cell-based, human; conditions: for inhibition at 1 µM: Homo sapiens, 3 h, test drug 1 μM, IL-6 10 ng/mL, HT-29/U937, read-out: inhibitory activity (%)
Procedure: The inhibitory activity test for intestinal epithelial cell-monocyte adhesion by IL-6 was performed using the same method as in the case of TNF-α. HT-29 cells were cultured in a 24-well plate at the density of 2×10^5 cells/cm^2, and the test drug was pretreated in a medium containing 1% FBS and 1% PS for 1 hour. Thereafter, 10 μg/mL of BCECF-AM was treated thereto and reacted at 37° C. for 30 minutes. U937 cells loaded with BCECF and IL-6 (10 ng/mL) were reacted with HT-29 cells previously treated with the test drug at 37° C. for 3 hours. Upon completion of the reaction, the medium was removed, and the culture flask was washed twice with PBS to remove non-adherent U937 cells. In the next step, the cells were lysed by treating with 0.1% Triton X-100 (0.1 M Tris) and reacted at room temperature for 30 minutes. Then, fluorescence was measured and quantified using a fluostar optima microplate reader (BMG Labtechnologies, Germany).

[4] = system: DSS-induced chronic enteritis mouse model; experiment: Oral efficacy in DSS-induced chronic enteritis mouse model; format: in vivo, C57BL/6 mice; conditions: chronic enteritis (DSS-water-DSS, total 35 days), mouse
Procedure: as §1, with “C57BL/6 mice” for “Sprague Dawley rats”, “7” for “3”
Enteritis was induced in mice by allowing them to freely ingest drinking water containing 2% DSS salt (M.W. 36,000˜50,000, MP Biomedicals, LLC, OH, USA). For the chronic enteritis model, DSS was administered using a schedule of DSS administration for the first 7 days, administration of normal drinking water for 14 days, repeated administration of DSS for 7 days from the 21st day, and administration of normal drinking water for 7 days. The drug was administered once a day, 6 days a week from the first day of DSS treatment (FIG. 2A). […] In order to measure the dose-dependent therapeutic effect of the drug in the acute enteritis model, DSS was administered for 5 days to induce enteritis, and then the drug was administered for 14 days to measure the degree of recovery and treatment of enteritis (FIG. 3A). The drug was administered orally once daily for […] at a fixed time.
Changes in body weight of each mouse were observed during the DSS and drug administration using a digital mass meter.
The colon of the mouse was extracted, and the length and weight from the anus to the cecum were measured.
Tissue staining was performed in the same manner as in the case of hematoxylin/eosin staining of the rat colon tissue, and scoring indexes of mucosal damage and recovery were applied in the same way.

[5] = Homo sapiens, test drug 1 μM, TNF-α 10 ng/mL, HT-29/U937
[6] = oral 1 mg/kg, 5 days, fixed-dose test (Table 6)
[7] = 10 mg/kg, dose-dependence test (Table 7)

Row | SMILES | inhibition at 1 µM [1, 5] | inhibition at 1 µM [3] | other results
1 | Cc1nc(NC(=O)c2sc3cc(F)ccc3c2Cl)c(C)c(C)c1OCC(=O)Nc1ccccc1 [XI-07, 3-chloro-6-fluoro-N-(3,4,6-trimethyl-5-(2-oxo-2-(phenylamino)ethoxy)pyridin-2-yl)benzo[b]thiophene-2-carboxamide] | 84.1% | 72.8% | Body weight recovery rate (%) [2, 6]: 82.9%; Intestinal weight recovery rate (%) [2, 6]: 91.0%
2 | Cc1nc(NC(=O)c2sc3cc(F)ccc3c2Cl)c(C)c(C)c1O [Compound X-24, 3-chloro-6-fluoro-N-(5-hydroxy-3,4,6-trimethylpyridin-2-yl)benzo[b]thiophene-2-carboxamide] |  |  | IC50 ([1]; Homo sapiens): 0.00023 mM; Body weight recovery rate (%) [2, 6]: 86.6%; Intestinal weight recovery rate (%) [2, 6]: 97.4%; Body weight recovery rate (%) ([4]; 1 mg/kg): 22.8%; Intestinal weight recovery rate (%) ([4]; 1 mg/kg): 58.1%; Body weight recovery rate (%) ([4]; 3 mg/kg): 73.3%; Intestinal weight recovery rate (%) ([4]; 3 mg/kg): 98.2%
3 | Cc1nc(NC(=O)c2cc3cc(Br)ccc3[nH]2)c(C)c(C)c1O [Compound X-07, 5-bromo-N-(5-hydroxy-3,4,6-trimethylpyridin-2-yl)-1H-indole-2-carboxamide] | 88.9% | 80.3% | Body weight recovery rate (%) [2, 6]: 72.9%; Intestinal weight recovery rate (%) [2, 6]: 94.9%
4 | Cc1nc(NC(=O)c2sc3cc(F)ccc3c2Cl)c(C)c(C)c1OC(=O)N1CCOCC1 [XI-17, 6-(3-chloro-6-fluorobenzo[b]thiophene-2-carboxamido)-2,4,5-trimethylpyridin-3-yl morpholine-4-carboxylate] | ≥ 50% | 59.6% | Body weight recovery rate (%) [2, 6]: 60.2%; Intestinal weight recovery rate (%) [2, 6]: 79.8%
5 | Cc1nc(NC(=O)c2oc3ccccc3c2C)c(C)c(C)c1O [Compound X-19, N-(5-hydroxy-3,4,6-trimethylpyridin-2-yl)-3-methylbenzofuran-2-carboxamide] | 25.1% | 18.7% | 
6 | Cc1nc(NC(=O)c2cc3cc(F)ccc3[nH]2)c(C)c(C)c1O [Compound X-06, 5-fluoro-N-(5-hydroxy-3,4,6-trimethylpyridin-2-yl)-1H-indole-2-carboxamide] | 49.9% | 42.9% | 
7 | Cc1nc(NC(=O)c2sc3cc(F)ccc3c2Cl)c(C)c(C)c1OCC(=O)NC1CCCCC1 [XI-05, 3-chloro-N-(5-(2-(cyclohexylamino)-2-oxoethoxy)-3,4,6-trimethylpyridin-2-yl)-6-fluorobenzo[b]thiophene-2-carboxamide] | 25.5% | 14.5% | 
8 | Cc1nc(NC(=O)c2cc3ccccc3s2)c(C)c(C)c1O [Compound X-20, N-(5-hydroxy-3,4,6-trimethylpyridin-2-yl)benzo[b]thiophene-2-carboxamide] | 16.5% | 27% | 
9 | Cc1nc(NC(=O)c2cc3cc(Br)ccc3o2)c(C)c(C)c1O [Compound X-17, 5-bromo-N-(5-hydroxy-3,4,6-trimethylpyridin-2-yl)benzofuran-2-carboxamide] | 8.5% | 3.6% | 
10 | Cc1nc(NC(=O)c2sc3cc(F)ccc3c2Cl)c(C)c(C)c1OC(=O)C12CC3CC(CC(C3)C1)C2 [XI-16, 6-(3-chloro-6-fluorobenzo[b]thiophene-2-carboxamido)-2,4,5-trimethylpyridin-3-yl (3r,5r,7r)-adamantane-1-carboxylate] | 29.2% | 20.3% | 
11 | COc1cccc2cc(C(=O)Nc3nc(C)c(O)c(C)c3C)oc12 [Compound X-18, N-(5-hydroxy-3,4,6-trimethylpyridin-2-yl)-7-methoxybenzofuran-2-carboxamide] | ≥ 50% | 48.8% | 
12 | Cc1nc(NC(=O)c2sc3cc(F)ccc3c2Cl)c(C)c(C)c1OCC(=O)NC(C)C [XI-03, 3-chloro-6-fluoro-N-(5-(2-(isopropylamino)-2-oxoethoxy)-3,4,6-trimethylpyridin-2-yl)benzo[b]thiophene-2-carboxamide] | ≥ 50% | 49.9% | 
13 | COc1cccc(C(=O)Oc2c(C)nc(NC(=O)c3sc4cc(F)ccc4c3Cl)c(C)c2C)c1 [XI-10, 6-(3-chloro-6-fluorobenzo[b]thiophene-2-carboxamido)-2,4,5-trimethylpyridin-3-yl 3-methoxybenzoate] | 46.5% | 13.1% | 
14 | Cc1nc(NC(=O)c2cc3cc(OC(F)(F)F)ccc3[nH]2)c(C)c(C)c1O [Compound X-11, N-(5-hydroxy-3,4,6-trimethylpyridin-2-yl)-5-(trifluoromethoxy)-1H-indole-2-carboxamide] | 32.8% | 24.2% | 
15 | C[C@]12C=CC(=O)C=C1CC[C@H]1[C@@H]3C[C@@H](O)[C@](O)(C(=O)CO)[C@@]3(C)C[C@H](O)[C@@]12F [Triamcinolone, reference compound] |  |  | Body weight recovery rate (%) [2, 7]: 70.0%; Intestinal weight recovery rate (%) [2, 7]: 84.5%
16 | Cc1nc(NC(=O)c2cc3ccccc3o2)c(C)c(C)c1O [Compound X-15, N-(5-hydroxy-3,4,6-trimethylpyridin-2-yl)benzofuran-2-carboxamide] | 4.8% | 42.4% | 
17 | Nc1ccc(O)c(C(=O)O)c1 [Compound 5-ASA, 5-ASA, reference compound] |  |  | IC50 [1]: 18.1 mM; Inhibitory activity (%) ([1]; test drug 1 μM, TNF-α 10 ng/mL, HT-29/U937): 3.8%; IC50 ([3]; inhibition of adhesion by IL-6): 25.1 mM
